45 molecules from patent publication US20160222014A1, “COMPOUNDS FOR REGULATING FAK AND/OR SRC PATHWAYS” (ASANA BIOSCIENCES, LLC, priority 2013, published 2016) can be followed below.

Structures are written as SMILES.

For one test, the target named is T1, AURKB (Aurora B) enzyme (Homo sapiens, UniProt Q96GD4).
T1 construct: purchased Invitrogen PVR 130
As to the kind of experiment: Aurora B HTRF assay. The format is biochemical. Particulars: read-out: AuroraB IC50. On the procedure:
AURKB (Aurora B) enzyme was obtained (Invitrogen, Cat No. PVR 130, Lot No. 857013J). A 8.64 μM stock was used at a final concentration 5 nM in the assay.
Lance@Ultera Ulight-PLK (Ser137) peptide substrate
Peptide substrate was obtained from Perkin Elmer (Lot#1629793, TRF0110-M). A 5 μM stock was used at a final concentration of 50 nM in the assay.
10 mM stock prepared freshly as above, used at a final concentration of 30 μM in assay.
The plate was covered with aluminum foil, put on a shaker and incubated 1 h at rt.
Reference: Pfizer aurora inhibitor PF-03814735 was procured from Selleckchem: Cat# S2725
Using stock Lance detection buffer, 1× Lance detection buffer was prepared. • 1. 10× lance detection buffer was diluted to 1×, mixed well and 100 μL was removed, and was used to substitute with antibody and EDTA (for a total of 2200 μL). • 2. 88 μL of […] EDTA was added from 500 mM stock. • 3. 14 μL Europium labeled antibody (LANCE@ Ultra EU-Anti-P-PLK(Ser 137), TRF0203-D, Lot No. 1630351, Perkin Elmer) was added from 625 nM stock; required concentration was 2 nM in the assay. • 4. The buffer well was mixed and 20 μL was transferred to the each well in the assay plate. • 5. The solutions were incubated for 1 h at rt. • 6. The plate was read using MET-HTRF® protocol using Pherastar equipment.

For a further test, the target named is T2, recombinant human FAK1 (Homo sapiens, UniProt Q05397).
T2 construct: fused on or other part: N-terminal 6xHis tag
The experiment in a line: FAK1 HTRF assay. Format: biochemical. As for the experimental part:
Active FAK1 was prepared for use in the Homogeneous Time-Resolved Fluorescence (HTRF) assay. Briefly, N-terminal 6 His tagged recombinant human FAK1, from residue 692-end (GenBank accession no. L13616) was expressed by Bacculovirus in sf9 cells. […] A 1.6 mg/mL (45 μM) stock was used in the HTRF assay at a final concentration of 10 nM.
Gastrin precursor (tyr87) biotinylated peptide which contains the residues surrounding tyrosine 87 (EEAY*GWM) of gastrin precursor was obtained (Cell Signaling Tech, Item no. 1310, Lot 7). The peptide was provided at a stock concentration of 6 μM, and used a final concentration of 0.5 μM in the HTRF assay.
10 mM stock in 100 μL Enzyme assay buffer pH7.4 was prepared freshly and used at a final concentration of 10 μM in the assay.
Powders were dissolved in 100% DMSO to a final stock concentration of 10 mM. The volume needed (in μL) to add for 10 mM=mg powder is 10^5/MW of compound. The final compound concentration in the assay plate started at 10 μM.
Pfizer FAK inhibitor PF-562271 (N-methyl-N-(3-(((2-((2-oxoindolin-5-yl)amino)-5-(trifluoromethyl)pyrimidin-4-yl)amino)methyl)pyridin-2-yl)methanesulfonamide) was prepared as per the reported procedure from US Patent Publication No. 2005/256145A1.
Streptavidin-Allophycocyanin was obtained (Prozyme, Cat. No. PJ25S. SA-APC was provided at a stock concentration of 2.06 mg/mL, where APC concentration was 11.6 μM and the streptavidin concentration was 15.5 μM. SA-APC was used at a final concentration of 12 nM in the assay (based on streptavidin concentration).
This reagent was obtained from Perkin ElmerAD0068. Europium-W1024-PT-66 Anti Phospho Tyrosine Ab is a monoclonal IgG1 that recognizes phospho tyrosine peptide. 100 μg/mL stock was used at a final concentration of 0.1 nM in the assay.
• 1. The compound dilutions were made by TECAN liquid handler as per the scheme in FIG. 1. • 2. 16 μL of diluted compound was added to each well of the assay plate using TECAN liquid handler. • 3. 20 μL of substrate mix (biotinylated gastrin precursor) was added into each well of the assay plate manually. • 4. 10 μL of enzyme mix (FAK1) was added to each well except mins. • 5. The plate was incubated at rt for 45 min with shaking. • 6. The HTRF mix was prepared and 75 μL was added to the HTRF plate. • 7. After the incubation was over, 10 μL of the mixture was transferred to the HTRF assay plate and incubated for 45 min at rt with shaking. • 8. The readings were taken in Pherastar in HTRF mode (ext 337 nm, em 665 & 620 nm) • 9. The results were analyzed using Graphpad Prism® software after calculation the z factor signal window and % inhibition. • 10. The IC50 was calculated.

T2 sequence (Q05397 422-680 limits assumed): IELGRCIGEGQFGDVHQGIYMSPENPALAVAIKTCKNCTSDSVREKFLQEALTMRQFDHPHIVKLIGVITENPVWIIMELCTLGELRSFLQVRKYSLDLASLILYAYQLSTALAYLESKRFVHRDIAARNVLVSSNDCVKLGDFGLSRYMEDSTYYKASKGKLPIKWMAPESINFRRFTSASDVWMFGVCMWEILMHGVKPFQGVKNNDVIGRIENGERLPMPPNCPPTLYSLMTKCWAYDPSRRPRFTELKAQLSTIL
T1 sequence (Q96GD4 whole entry): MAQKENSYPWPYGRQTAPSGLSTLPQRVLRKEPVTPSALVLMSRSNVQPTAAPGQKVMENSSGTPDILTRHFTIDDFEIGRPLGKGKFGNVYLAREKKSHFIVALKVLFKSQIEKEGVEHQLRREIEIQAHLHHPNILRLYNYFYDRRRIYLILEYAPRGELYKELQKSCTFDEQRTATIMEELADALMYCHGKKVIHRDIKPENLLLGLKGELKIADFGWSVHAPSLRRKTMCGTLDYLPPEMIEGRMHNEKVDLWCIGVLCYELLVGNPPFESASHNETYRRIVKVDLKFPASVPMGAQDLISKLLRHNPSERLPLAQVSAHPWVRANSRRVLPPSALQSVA

For the molecule `CN(C)C1CCCN(c2ccc(Nc3ncc4ccn(Cc5ccccc5N(C)S(C)(=O)=O)c4n3)cc2)C1` (stereo not shown) [Example 598], the IC50 (commonly the concentration that inhibits the measured activity by half) on AURKB (Aurora B) enzyme is under 20 nM.

Turning to `O=S(=O)(c1cccc2cccnc12)n1ccc2cnc(Nc3ccc(N4CCOCC4)cc3)nc21` [Example 389], the IC50 at AURKB (Aurora B) enzyme and on recombinant human FAK1 was under 20 nM each time. Consider `C[C@H](O)CN1CCN(c2ccc(Nc3cc4c(ccn4S(=O)(=O)c4ccccc4C#N)cn3)cc2)CC1` [Example 631], for which the IC50 at AURKB (Aurora B) enzyme was under 20 nM. Same read-out and setting: to `CN(c1ccccc1Cn1ccc2cnc(Nc3ccc(N4CCC(N)CC4)cc3)nc21)S(C)(=O)=O` [Example 463] belongs under 20 nM.

Take `C[C@@H](O)CN1CCN(c2ccc(Nc3ncc4ccn(Cc5ccccc5N(C)S(C)(=O)=O)c4n3)cc2)CC1` [Example 665]: the IC50 at AURKB (Aurora B) enzyme and on recombinant human FAK1 was under 20 nM in each case. In the case of `c1cnc2c(Cn3ccc4cnc(Nc5ccc(N6CCNCC6)cc5)nc43)cccc2c1` [Example 378], the IC50 at AURKB (Aurora B) enzyme is under 20 nM. For `CS(=O)(=O)Nc1ccccc1Cn1ccc2cnc(Nc3ccc4c(c3)CCC(=O)N4)nc21` [Example 595], the IC50 at AURKB (Aurora B) enzyme and at recombinant human FAK1 was under 20 nM throughout. Turning to `CS(=O)(=O)Nc1ccccc1Cn1ccc2cnc(Nc3ccc4c(c3)OCC(=O)N4)nc21` [Example 618], the IC50 on AURKB (Aurora B) enzyme and at recombinant human FAK1 was under 20 nM each time.

For the molecule `CN(c1ccccc1Cn1ccc2cnc(Nc3ccc(N4CCNC(CO)C4)cc3)nc21)S(C)(=O)=O` (stereo not shown) [Example 602], at AURKB (Aurora B) enzyme, the IC50 was under 20 nM.

In the case of `O=S(=O)(c1cccc2cccnc12)n1ccc2cnc(Nc3ccc(N4CCNCC4)c(F)c3)cc21` [Example 323], the IC50 at AURKB (Aurora B) enzyme and on recombinant human FAK1 was under 20 nM in each case. In the case of `CC1(C)CN(S(=O)(=O)c2cccc3cccnc23)c2nc(Nc3ccc4c(c3)CCC(=O)N4)ncc21` [Example 545], the IC50 on AURKB (Aurora B) enzyme and on recombinant human FAK1 was under 20 nM throughout. For the molecule `C[C@@H]1CNCCN1c1ccc(Nc2ncc3ccn(S(=O)(=O)c4cccc5cccnc45)c3n2)cc1` [Example 490], the IC50 at AURKB (Aurora B) enzyme and on recombinant human FAK1 was under 20 nM throughout. On to `CN(C)c1cccc(Nc2ncc3ccn(Cc4cccnc4N(C)S(C)(=O)=O)c3n2)c1` [Example 139], for which the IC50 at AURKB (Aurora B) enzyme and on recombinant human FAK1 was under 20 nM each time.

On to `Cc1nn(Cc2cccnc2N(C)S(C)(=O)=O)c2cc(Nc3ccc4c(c3)CCC(=O)N4)ncc12` [Example 69], for which the IC50 on AURKB (Aurora B) enzyme is over 1000 nM. The same measure, in the same setting: to `CN(C)CCOc1cccc(Nc2ncc3ccn(S(=O)(=O)c4ccccc4C#N)c3n2)c1` [Example 173] belongs under 20 nM. `CN1CCN(c2ccc(Nc3ncc4c(n3)N(S(=O)(=O)c3cccc5cccnc35)CC4(C)C)cc2)CC1` [Example 498]: the IC50 at AURKB (Aurora B) enzyme was over 1000 nM. The same measure, in the same setting: to `CN(C)C1CN(c2ccc(Nc3ncc4ccn(Cc5ccccc5N(C)S(C)(=O)=O)c4n3)cc2F)C1` [Example 608] belongs under 20 nM. The same measure, in the same setting: to `C[C@@H]1CN(c2ccc(Nc3ncc4c(n3)N(S(=O)(=O)c3ccccc3C#N)CC4(C)C)cc2)CCN1` [Example 466] belongs over 1000 nM. Consider `O=S(=O)(c1cccc2cccnc12)n1ccc2cnc(Nc3ccc(N4CCNCC4)cc3)cc21` [Example 321], for which the IC50 at AURKB (Aurora B) enzyme and at recombinant human FAK1 was under 20 nM in each case. Turning to `CC1(C)CN(S(=O)(=O)c2ccccc2C#N)c2nc(Nc3ccc(N4CCNCC4)cc3)ncc21` [Example 461], on AURKB (Aurora B) enzyme, the IC50 was over 1000 nM. On the same count and under the same terms, to `CN(c1ccccc1Cn1ccc2cnc(Nc3ccc(N4CCNC(C)(C)C4=O)cc3)nc21)S(C)(=O)=O` [Example 552] belongs under 20 nM.

For the molecule `O=c1[nH]c2ccc(Nc3ncc4ccn(S(=O)(=O)c5cccc6cccnc56)c4n3)cc2[nH]1` [Example 395], the IC50 on AURKB (Aurora B) enzyme and on recombinant human FAK1 was under 20 nM each time. In the case of `C[C@H](O)CN1CCN(c2ccc(Nc3ncc4ccn(Cc5ccccc5N(C)S(C)(=O)=O)c4n3)cc2)C[C@H]1C` [Example 692], the IC50 on AURKB (Aurora B) enzyme was under 20 nM.

Consider `C[C@H]1CN(c2ccc(Nc3ncc4ccn(Cc5ccccc5N(C)S(C)(=O)=O)c4n3)cc2F)CCN1` [Example 557], for which, on AURKB (Aurora B) enzyme, the IC50 is under 20 nM. In the case of `CC(=O)Nc1ccc(Nc2cc3c(cn2)cnn3Cc2ccccc2OC(F)F)cc1` [Example 75], at AURKB (Aurora B) enzyme, the IC50 is over 1000 nM. On the same count and under the same terms, to `C[C@@H]1CNCCN1c1ccc(Nc2ncc3ccn(Cc4ccccc4N(C)S(C)(=O)=O)c3n2)cc1` [Example 482] belongs under 20 nM. As to `CN(c1ncccc1CN1C(=O)Cc2cnc(Nc3ccc(N4CCC(O)CC4)cc3)nc21)S(C)(=O)=O` [Example 404], the IC50 at AURKB (Aurora B) enzyme is over 1000 nM.

Turning to `CN(C)S(=O)(=O)c1ccccc1Cn1ccc2cnc(Nc3ccc(N4CCNCC4)cc3)nc21` [Example 200], the IC50 on AURKB (Aurora B) enzyme is under 20 nM. Same read-out and setting: to `CN(c1ncccc1Cn1ccc2cnc(Nc3ccc4nn[nH]c4c3)nc21)S(C)(=O)=O` [Example 189] belongs under 20 nM; to `N#Cc1ccccc1S(=O)(=O)n1ccc2cnc(Nc3ccc4c(c3)CC3CNCCN43)cc21` (stereo not shown) [Example 551], under 20 nM. As to `C[C@@H]1CN(C)CCN1c1ccc(Nc2ncc3ccn(Cc4ccccc4N(C)S(C)(=O)=O)c3n2)cc1` [Example 488], the IC50 at AURKB (Aurora B) enzyme was under 20 nM.

In the case of `CC(=O)Nc1ccc(Nc2cc3c(cn2)cnn3Cc2ccccc2OC(F)F)nc1` [Example 73], at AURKB (Aurora B) enzyme, the IC50 is over 1000 nM.

For `CN(c1ncccc1Cn1ccc2cnc(Nc3cccc(CO)c3)nc21)S(C)(=O)=O` [Example 166], on AURKB (Aurora B) enzyme, the IC50 is under 20 nM.

Consider `CN(c1ccccc1Cn1ccc2cnc(Nc3ccc(C4CNCCN4)cc3)nc21)S(C)(=O)=O` (stereo not shown) [Example 610], for which the IC50 on AURKB (Aurora B) enzyme was under 20 nM.

On to `C[C@H]1CNCCN1c1ccc(Nc2ncc3c(n2)N(S(=O)(=O)c2cccc4cccnc24)CC3(C)C)cc1` [Example 564], for which the IC50 on AURKB (Aurora B) enzyme was over 1000 nM.

`C[C@H]1CN(c2ccc(Nc3ncc4c(n3)N(S(=O)(=O)c3cccc5cccnc35)CC4(C)C)cc2F)CCN1` [Example 554]: at AURKB (Aurora B) enzyme, the IC50 was over 1000 nM. Same read-out and setting: the result for `Nc1ccccc1S(=O)(=O)n1ccc2cnc(Nc3ccc4c(c3)CCC(=O)N4)nc21` [Example 164] reads under 20 nM; that for `N#Cc1ccccc1S(=O)(=O)n1ccc2cnc(Nc3ccc(C4CNCCN4)cc3)cc21` (stereo not shown) [Example 614], under 20 nM; that for `C[C@H]1CN(c2ccc(Nc3ncc4ccn(Cc5cccnc5N(C)S(C)(=O)=O)c4n3)cc2)CCN1C` [Example 487], under 20 nM. Still for that read-out and setting: the result for `CC1(C)CN(S(=O)(=O)c2cccc3cccnc23)c2nc(Nc3ccc(N4CCNCC4)c(F)c3)ncc21` [Example 524] reads over 1000 nM; that for `Cc1cc(Nc2ncc3c(n2)N(S(=O)(=O)c2cccc4cccnc24)CC3(C)C)ccc1N1CCC(N(C)C)CC1` [Example 648], over 1000 nM; that for `Cc1ccc2cccc(S(=O)(=O)n3ccc4cnc(Nc5ccc(N6CCNCC6)cc5)nc43)c2n1` [Example 367], under 20 nM. Regarding `COc1cc(Nc2ncc3ccn(S(=O)(=O)c4cccc5cccnc45)c3n2)ccc1N1CC2CC1CN2C` (stereo not shown) [Example 439], the IC50 at recombinant human FAK1 was under 20 nM. Same read-out and setting: to `Cc1ccc(N(C)S(C)(=O)=O)c(Cn2ccc3cnc(Nc4ccc(N5CCCC(N)C5)cc4)nc32)c1` (stereo not shown) [Example 978] belongs under 20 nM. In the case of `CC(=O)Nc1cccc(Nc2cc3c(cn2)c(C)nn3Cc2cccnc2N(C)S(C)(=O)=O)c1` [Example 68], the IC50 at recombinant human FAK1 is over 1000 nM.
